Data on 27 compounds can be found in patent US10195196B2, “1,4-disubstituted pyridazine analogs there of and methods for treating SMN-deficiency-related conditions” (NOVARTIS AG, priority 2012, dated 2019).

Broadly, the EC50 is the concentration at which the effect is half-maximal.

The assay has as its system SMN protein. Put plainly: cellular SMN ELISA (SMN protein elevation). It counts as cell-based. The settings on record: ELISA condition 2: compound concentration 100 pM-10 uM, myoblast cell line from SMNdelta7 mouse model, 24 hours treatment; for SMN activity Fold: fold activation over DMSO control. In short, it runs like this: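 SMNdelta7 mouse-derived myoblasts were treated with compound for 24 h, then lysed. SMN protein was quantified by sandwich ELISA (HRP/TMB, 450 nm) and reported as fold over DMSO and EC50, over 20 nM–10 μM or 100 pM–10 μM depending on condition.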
(An ELISA detects its analyte on a solid surface through an enzyme-linked reagent.)

`COc1cc(-c2cnc3n2CCCC3)cc(O)c1-c1ccc(N(C)C2CC(C)(C)NC(C)(C)C2)nn1` [Example 26-2, 3-methoxy-2-(6-(methyl(2,2,6,6-tetramethylpiperidin-4-yl)amino)pyridazin-3-yl)-5-(5,6,7,8-tetrahydroimidazo[1,2-a]pyridin-3-yl)phenol]: the EC50 worked out at 97 nM and the “SMN activity Fold” value was determined as 2.61 Fold.

`COc1cc(-c2cccnc2)cc(O)c1-c1ccc(N(C)C2CC(C)(C)NC(C)(C)C2)nn1` [Example 26-3, 3-methoxy-2-(6-(methyl(2,2,6,6-tetramethylpiperidin-4-yl)amino)pyridazin-3-yl)-5-(pyridin-3-yl)phenol]: the response was half-maximal at 47 nM (EC50) and the “SMN activity Fold” value stood at 2.70 Fold.

For `COc1cc(-c2cnn(C3CCCC3)c2)cc(O)c1-c1ccc(N(C)C2CC(C)(C)NC(C)(C)C2)nn1` [Example 26-4, 5-(1-cyclopentyl-1H-pyrazol-4-yl)-3-methoxy-2-(6-(methyl(2,2,6,6-tetramethylpiperidin-4-yl)amino)pyridazin-3-yl)phenol], the EC50 stood at 649 nM and the “SMN activity Fold” value came to 2.22 Fold.

Consider `COc1cccc(-c2cc(O)c(-c3ccc(N(C)C4CC(C)(C)NC(C)(C)C4)nn3)c(OC)c2)c1` [Example 26-5, 3′,5-Dimethoxy-4-(6-(methyl(2,2,6,6-tetramethylpiperidin-4-yl)amino)pyridazin-3-yl)-[1,1′-biphenyl]-3-ol], for which the EC50 is 313 nM and the “SMN activity Fold” value was 2.14 Fold.

For `Cc1cnc(-c2cc(O)c(-c3ccc(N(C)C4CC(C)(C)NC(C)(C)C4)nn3)c(OCc3ccccc3)c2)o1` [Example 27-1, 3-(benzyloxy)-2-(6-(methyl(2,2,6,6-tetramethylpiperidin-4-yl)amino)pyridazin-3-yl)-5-(5-methyloxazol-2-yl)phenol], the EC50 came out at 305 nM and the “SMN activity Fold” value was found to be 2.35 Fold.

Consider `CCOc1cc(-c2ncc(C)o2)cc(O)c1-c1ccc(N(C)C2CC(C)(C)NC(C)(C)C2)nn1` [Example 27-2, 3-ethoxy-2-(6-(methyl(2,2,6,6-tetramethylpiperidin-4-yl)amino)pyridazin-3-yl)-5-(5-methyloxazol-2-yl)phenol], for which a half-maximal effect (EC50) was put at 165 nM and the “SMN activity Fold” value was determined as 2.83 Fold.

As for `Cc1cnc(-c2cc(O)c(-c3ccc(N(C)C4CC(C)(C)NC(C)(C)C4)nn3)c(OCC3CC3)c2)o1` [Example 27-3, 3-(cyclopropylmethoxy)-2-(6-(methyl(2,2,6,6-tetramethylpiperidin-4-yl)amino)-pyridazin-3-yl)-5-(5-methyloxazol-2-yl)phenol], the EC50 came out at 619 nM and the “SMN activity Fold” value came out at 2.75 Fold.

Regarding `Cc1nc2cc(-c3ccc(N(C)C4CC(C)(C)NC(C)(C)C4)nn3)c(O)cc2[nH]1` [Example 28-1, 2-methyl-5-(6-(methyl(2,2,6,6-tetramethylpiperidin-4-yl)amino)pyridazin-3-yl)-1H-benzo[d]imidazol-6-ol], the EC50 was found to be 475 nM and the “SMN activity Fold” value is recorded as 3.41 Fold.

Consider `CN(c1ccc(-c2ccc(Cl)cc2O)nn1)C1CC(C)(C)NC(C)(C)C1` [Example 29-1, 5-chloro-2-(6-(methyl(2,2,6,6-tetramethylpiperidin-4-yl)amino)pyridazin-3-yl)phenol], for which a half-maximal response (EC50) required 113 nM and the “SMN activity Fold” value is 2.49 Fold.

As to `CC1(C)CC(Nc2ccc(-c3ccc(-n4cccn4)cc3O)nn2)CC(C)(C)N1` [Example 30-1, 5-(1H-pyrazol-1-yl)-2-(6-((2,2,6,6-tetramethylpiperidin-4-yl)amino)pyridazin-3-yl)phenol], the EC50 was found to be 8 nM and the “SMN activity Fold” value came to 2.99 Fold.

In the case of `CC1(C)CC(Nc2ccc(-c3ccc(C#N)cc3O)nn2)CC(C)(C)N1` [Example 30-2, 3-hydroxy-4-(6-((2,2,6,6-tetramethylpiperidin-4-yl)amino)pyridazin-3-yl)benzonitrile], it took 62 nM to reach a half-maximal effect (EC50) and the “SMN activity Fold” value is reported as 2.98 Fold.

Regarding `CC1(C)CC(Oc2ccc(-c3ccc(-n4cccn4)cc3O)nn2)CCN1` (stereo not drawn) [Example 31-1, 2-(6-((2,2-dimethylpiperidin-4-yl)oxy)pyridazin-3-yl)-5-(1H-pyrazol-1-yl)phenol], the EC50 is 200 nM and the “SMN activity Fold” value came to 3.03 Fold.

In the case of `CN(c1ccc(-c2cc(-c3cn[nH]c3)ccc2O)nn1)C1CC(C)(C)NC(C)(C)C1` [Example 32-1, 2-(6-(methyl(2,2,6,6-tetramethylpiperidin-4-yl)amino)pyridazin-3-yl)-4-(1H-pyrazol-4-yl)phenol], the response was half-maximal at 125 nM (EC50) and the “SMN activity Fold” value was found to be 2.67 Fold.

`CN(c1ccc(-c2cc(-c3cnn4c3CCCC4)ccc2O)nn1)C1CC(C)(C)NC(C)(C)C1` [Example 32-2, 2-(6-(methyl(2,2,6,6-tetramethylpiperidin-4-yl)amino)pyridazin-3-yl)-4-(4,5,6,7-tetrahydropyrazolo[1,5-a]pyridin-3-yl)phenol]: a half-maximal response (EC50) required 396 nM and the “SMN activity Fold” value is listed as 2.49 Fold.

Consider `CN(c1ccc(-c2cc(-c3cnn4c3CNCC4)ccc2O)nn1)C1CC(C)(C)NC(C)(C)C1` [Example 32-3, 2-(6-(methyl(2,2,6,6-tetramethylpiperidin-4-yl)amino)pyridazin-3-yl)-4-(4,5,6,7-tetrahydropyrazolo[1,5-a]pyrazin-3-yl)phenol], for which the EC50 is 201 nM and the “SMN activity Fold” value stood at 2.44 Fold.

Consider `CN(c1ccc(-c2cc(-c3cc4ccccc4[nH]3)ccc2O)nn1)C1CC(C)(C)NC(C)(C)C1` [Example 32-4, 4-(1H-indol-2-yl)-2-(6-(methyl(2,2,6,6-tetramethylpiperidin-4-yl)amino)pyridazin-3-yl)phenol], for which the EC50 stood at 168 nM and the “SMN activity Fold” value is recorded as 2.09 Fold.

Take `CN(c1ccc(-c2cc(C3=CCCC3)ccc2O)nn1)C1CC(C)(C)NC(C)(C)C1` [Example 32-5, 4-(cyclopent-1-en-1-yl)-2-(6-(methyl(2,2,6,6-tetramethylpiperidin-4-yl)amino)pyridazin-3-yl)phenol]: the EC50 turned out to be 231 nM and the “SMN activity Fold” value is recorded as 2.52 Fold.

Turning to `CN(c1ccc(-c2cc(-c3ccn[nH]3)ccc2O)nn1)C1CC(C)(C)NC(C)(C)C1` [Example 32-6, 2-(6-(methyl(2,2,6,6-tetramethylpiperidin-4-yl)amino)pyridazin-3-yl)-4-(1H-pyrazol-3-yl)phenol], the response was half-maximal at 92 nM (EC50) and the “SMN activity Fold” value worked out at 2.69 Fold.

Turning to `CN(c1ccc(-c2cc(-c3ccnc(O)c3)ccc2O)nn1)C1CC(C)(C)NC(C)(C)C1` [Example 32-7, 4-(4-hydroxy-3-(6-(methyl(2,2,6,6-tetramethylpiperidin-4-yl)amino)pyridazin-3-yl)phenyl)pyridin-2-ol], a half-maximal effect (EC50) was put at 551 nM and the “SMN activity Fold” value is 3.27 Fold.

Regarding `Cn1ccc(-c2ccc(O)c(-c3ccc(OC4CC(C)(C)NC(C)(C)C4)nn3)c2)cc1=O` [Example 32-8, 4-(4-hydroxy-3-(6-((2,2,6,6-tetramethylpiperidin-4-yl)oxy)pyridazin-3-yl)phenyl)-1-methylpyridin-2(1H)-one], the EC50 was 433 nM and the “SMN activity Fold” value is 2.61 Fold.

On to `CC1(C)CC(Oc2ccc(-c3cc(-c4ccnc(O)c4)ccc3O)nn2)CC(C)(C)N1` [Example 32-9, 4-(4-hydroxy-3-(6-((2,2,6,6-tetramethylpiperidin-4-yl)oxy)pyridazin-3-yl)phenyl)pyridin-2-ol], for which the EC50 was 485 nM and the “SMN activity Fold” value is on record as 2.90 Fold.

For `CN(c1ccc(-c2ccc(-c3cccc4cn[nH]c34)cc2O)nn1)C1CC(C)(C)NC(C)(C)C1` [Example 33-1, 5-(1H-indazol-7-yl)-2-(6-(methyl(2,2,6,6-tetramethylpiperidin-4-yl)amino)pyridazin-3-yl)phenol], the half-maximal effective concentration (EC50) was 349 nM and the “SMN activity Fold” value worked out at 2.29 Fold.

In the case of `CN(c1ccc(-c2cc(Cl)c(-c3cn[nH]c3)cc2O)nn1)C1CC(C)(C)NC(C)(C)C1` [Example 34-1, 4-chloro-2-(6-(methyl(2,2,6,6-tetramethylpiperidin-4-yl)amino)pyridazin-3-yl)-5-(1H-pyrazol-4-yl)phenol], the EC50 is 7 nM and the “SMN activity Fold” value is listed as 2.80 Fold.

For the compound `CN(c1ccc(-c2cc(F)c(-c3cn[nH]c3)cc2O)nn1)C1CC(C)(C)NC(C)(C)C1` [Example 34-2, 4-fluoro-2-(6-(methyl(2,2,6,6-tetramethylpiperidin-4-yl)amino)pyridazin-3-yl)-5-(1H-pyrazol-4-yl)phenol], the EC50 came to 2 nM and the “SMN activity Fold” value came out at 2.49 Fold.

On to `CN(c1ccc(-c2cc(-c3c[nH]cn3)c(F)cc2O)nn1)C1CC(C)(C)NC(C)(C)C1` [Example 34-3, 5-fluoro-4-(1H-imidazol-4-yl)-2-(6-(methyl(2,2,6,6-tetramethylpiperidin-4-yl)amino)pyridazin-3-yl)phenol], for which the EC50 was 27 nM and the “SMN activity Fold” value is listed as 2.56 Fold.

Turning to `CN(c1ccc(-c2cc(-c3cn[nH]c3)c(F)cc2O)nn1)C1CC(C)(C)NC(C)(C)C1` [Example 34-4, 5-fluoro-2-(6-(methyl(2,2,6,6-tetramethylpiperidin-4-yl)amino)pyridazin-3-yl)-4-(1H-pyrazol-4-yl)phenol], the EC50 was found to be 37 nM and the “SMN activity Fold” value was 2.34 Fold.

Consider `CN(c1ccc(-c2cc(-c3ccn[nH]3)c(F)cc2O)nn1)C1CC(C)(C)NC(C)(C)C1` [Example 34-5, 5-fluoro-2-(6-(methyl(2,2,6,6-tetramethylpiperidin-4-yl)amino)pyridazin-3-yl)-4-(1H-pyrazol-5-yl)phenol], for which the EC50 stood at 56 nM and the “SMN activity Fold” value was 2.75 Fold.
